Experimental data as given in the supplement of paper PMC4862054.

Experiments:
Details in all cases: incubation time: 72 h
BT-474 = assay: normalised viability (% of control), CellTiter-Blue; higher = more viable cells (about 100 = DMSO control)
Outline: (§1)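 Vehicle (100) and a positive kill control (0) anchored the normalisation of each plate, and Z'-factor was used for quality control. Breast cancer cell lines in 20 µl suspension were incubated 72 h over compound in 5 µl medium in 384-well plates, followed by CellTiter-Blue at 560/590 nm. The value is normalised viability at a single listed concentration of the series.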

CAL-85-1 [1] = assay: as above
Outline: as §1

HCC1143 [2] = assay: as above
Outline: as §1

SK-BR-3 = assay: as above
Outline: as §1

CAL-51 [3] = assay: as above
Outline: as §1

MDA-MB-231 = assay: as above
Outline: as §1

MDA-MB-468 = assay: as above
Outline: as §1

BT-549 = assay: as above
Outline: as §1

HCC1937 = assay: as above
Outline: as §1

HCC1599 [4] = assay: as above
Outline: as §1

HDQ-P1 [5] = assay: as above
Outline: as §1

DU-4475 [6] = assay: normalised viability (% of control), CellTiter-Blue; higher = more viable cells (about 100 = DMSO control)
Method: (§2)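 DSRT, CellTiter-Blue viability, 72 h incubation. Signal is normalised to DMSO and benzethonium chloride controls. Value is the normalised response at dose 8.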

CAL-85-1 [7] = assay: as above; remark: listed apart in the source
Method: as §2

CAL-148 = assay: as above
Method: as §2

CAL-51 [8] = assay: as above; remark: listed apart in the source
Method: as §2

HDQ-P1 [9] = assay: as above; remark: listed apart in the source
Method: as §2

MDA-MB-453 [10] = assay: as above
Method: as §2

DU-4475 [11] = assay: drug sensitivity score (DSS), CellTiter-Glo (DSS (AUC-based score)); higher = stronger drug effect (viability inhibition or cytotoxicity); extreme values may be limits of the assay
Outline: (§3)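 A drug sensitivity score was derived from the area under each fitted dose-response curve. Breast cancer cells (20 µl suspension) were seeded onto compound in 384-well plates, using 5 concentrations 10-fold apart over a compound-specific 10,000-fold range, and incubated 72 h. Readouts were CellTox Green fluorescence and then CellTiter-Glo luminescence, with every plate normalised to 0.1 % DMSO and a positive kill control.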

HCC1143 [12] = assay: as above
Outline: as §3

MFM-223 = assay: as above
Outline: as §3

MCF-10A = assay: as above
Outline: as §3

MDA-MB-436 = assay: as above
Outline: as §3

HCC1599 [13] = assay: as above
Outline: as §3

HDQ-P1 [14] = assay: as above
Outline: as §3

MDA-MB-453 [15] = assay: as above
Outline: as §3

SMILES: COc1cc2nccc(Oc3ccc(NC(=O)Nc4cc(C)on4)c(Cl)c3)c2cc1OC [Tivozanib]
- normalised viability (BT-474; 10 nM): 111%
- normalised viability (BT-474; 1000 nM): 96.4%
- normalised viability (BT-474; 10000 nM): 62.8%
- normalised viability (CAL-85-1 [1]; 3 nM): 100%
- normalised viability (CAL-85-1 [1]; 30 nM): 107%
- normalised viability (CAL-85-1 [1]; 100 nM): 103%
- normalised viability (HCC1143 [2]; 10 nM): 111%
- normalised viability (HCC1143 [2]; 1000 nM): 105%
- normalised viability (HCC1143 [2]; 10000 nM): 94.5%
- normalised viability (SK-BR-3; 10 nM): 99.7%
- normalised viability (SK-BR-3; 1000 nM): 99.1%
- normalised viability (SK-BR-3; 10000 nM): 68.9%
- normalised viability (CAL-51 [3]; 3 nM): 100%
- normalised viability (CAL-51 [3]; 30 nM): 103%
- normalised viability (CAL-51 [3]; 100 nM): 96.3%
- normalised viability (MDA-MB-231; 10 nM): 87.8%
- normalised viability (MDA-MB-231; 1000 nM): 78.1%
- normalised viability (MDA-MB-231; 10000 nM): 43.1%
- normalised viability (MDA-MB-468; 10 nM): 103%
- normalised viability (MDA-MB-468; 1000 nM): 111%
- normalised viability (MDA-MB-468; 10000 nM): 51.1%
- normalised viability (BT-549; 10 nM): 82.7%
- normalised viability (BT-549; 1000 nM): 97.6%
- normalised viability (BT-549; 10000 nM): 36.5%
- normalised viability (HCC1937; 10 nM): 127%
- normalised viability (HCC1937; 1000 nM): 88.2%
- normalised viability (HCC1937; 10000 nM): 63%
- normalised viability (HCC1599 [4]; 10 nM): 121%
- normalised viability (HCC1599 [4]; 1000 nM): 98.8%
- normalised viability (HCC1599 [4]; 10000 nM): 79%
- normalised viability (HDQ-P1 [5]; 3 nM): 83.1%
- normalised viability (HDQ-P1 [5]; 30 nM): 85.8%
- normalised viability (HDQ-P1 [5]; 100 nM): 99.7%
- normalised viability (DU-4475 [6]; 3000 nM): 118%
- normalised viability (CAL-85-1 [7]; 3000 nM): 92.8%
- normalised viability (CAL-148; 3000 nM): 94%
- normalised viability (CAL-51 [8]; 3000 nM): 80%
- normalised viability (HDQ-P1 [9]; 3000 nM): 67.6%
- normalised viability (MDA-MB-453 [10]; 3000 nM): 51.9%
- drug sensitivity score (DU-4475 [11]): 0
- drug sensitivity score (HCC1143 [12]): 0
- drug sensitivity score (MFM-223): 7.56
- drug sensitivity score (MCF-10A): 1.39
- drug sensitivity score (MDA-MB-436): 0
- drug sensitivity score (HCC1599 [13]): 0
- drug sensitivity score (HDQ-P1 [14]): 1.67
- drug sensitivity score (MDA-MB-453 [15]): 2.71

SMILES: Nc1nc(F)nc2c1ncn2[C@@H]1O[C@H](CO)[C@@H](O)[C@@H]1O [Fludarabine]
- normalised viability (BT-474; 10 nM): 94%
- normalised viability (BT-474; 1000 nM): 97.4%
- normalised viability (BT-474; 10000 nM): 103%
- normalised viability (CAL-85-1 [1]; 3 nM): 88%
- normalised viability (CAL-85-1 [1]; 30 nM): 87.2%
- normalised viability (CAL-85-1 [1]; 100 nM): 92.8%
- normalised viability (HCC1143 [2]; 10 nM): 75.8%
- normalised viability (HCC1143 [2]; 1000 nM): 80%
- normalised viability (HCC1143 [2]; 10000 nM): 55.9%
- normalised viability (SK-BR-3; 10 nM): 98.6%
- normalised viability (SK-BR-3; 1000 nM): 93.3%
- normalised viability (SK-BR-3; 10000 nM): 77.8%
- normalised viability (CAL-51 [3]; 3 nM): 100%
- normalised viability (CAL-51 [3]; 30 nM): 101%
- normalised viability (CAL-51 [3]; 100 nM): 91.9%
- normalised viability (MDA-MB-231; 10 nM): 90.9%
- normalised viability (MDA-MB-231; 1000 nM): 89.9%
- normalised viability (MDA-MB-231; 10000 nM): 81.1%
- normalised viability (MDA-MB-468; 10 nM): 98.8%
- normalised viability (MDA-MB-468; 1000 nM): 112%
- normalised viability (MDA-MB-468; 10000 nM): 98.9%
- normalised viability (BT-549; 10 nM): 85.1%
- normalised viability (BT-549; 1000 nM): 97.1%
- normalised viability (BT-549; 10000 nM): 81.5%
- normalised viability (HCC1937; 10 nM): 97.5%
- normalised viability (HCC1937; 1000 nM): 84.8%
- normalised viability (HCC1937; 10000 nM): 54.5%
- normalised viability (HCC1599 [4]; 10 nM): 102%
- normalised viability (HCC1599 [4]; 1000 nM): 82.6%
- normalised viability (HCC1599 [4]; 10000 nM): 89.5%
- normalised viability (HDQ-P1 [5]; 3 nM): 107%
- normalised viability (HDQ-P1 [5]; 30 nM): 91%
- normalised viability (HDQ-P1 [5]; 100 nM): 96.4%
- normalised viability (DU-4475 [6]; 3000 nM): 104%
- normalised viability (CAL-85-1 [7]; 3000 nM): 96.7%
- normalised viability (CAL-148; 3000 nM): 84.5%
- normalised viability (CAL-51 [8]; 3000 nM): 104%
- normalised viability (HDQ-P1 [9]; 3000 nM): 108%
- normalised viability (MDA-MB-453 [10]; 3000 nM): 111%
- drug sensitivity score (DU-4475 [11]): 0
- drug sensitivity score (HCC1143 [12]): 0
- drug sensitivity score (MFM-223): 0
- drug sensitivity score (MCF-10A): 0
- drug sensitivity score (MDA-MB-436): 1.1
- drug sensitivity score (HCC1599 [13]): 0
- drug sensitivity score (HDQ-P1 [14]): 0
- drug sensitivity score (MDA-MB-453 [15]): 0

SMILES: COc1cc2c(NC3CCN(C(C)C)CC3)nc(C3CCCCC3)nc2cc1OCCCN1CCCC1 [UNC0638]
- drug sensitivity score (DU-4475 [11]): 0.314
- drug sensitivity score (HCC1143 [12]): 3.85
- drug sensitivity score (MFM-223): 6.13
- drug sensitivity score (MCF-10A): 7.1
- drug sensitivity score (MDA-MB-436): 6.5
- drug sensitivity score (HCC1599 [13]): 2.99
- drug sensitivity score (HDQ-P1 [14]): 3.3
- drug sensitivity score (MDA-MB-453 [15]): 7.02

SMILES: O=C(/C=C/c1cccnc1)NCCCCC1CCN(C(=O)c2ccccc2)CC1 [Daporinad]
- drug sensitivity score (DU-4475 [11]): 25.2
- drug sensitivity score (HCC1143 [12]): 22.2
- drug sensitivity score (MFM-223): 31.4
- drug sensitivity score (MCF-10A): 23.2
- drug sensitivity score (MDA-MB-436): 8.81
- drug sensitivity score (HCC1599 [13]): 29.4
- drug sensitivity score (HDQ-P1 [14]): 18
- drug sensitivity score (MDA-MB-453 [15]): 26.8

SMILES: CC[C@H](Nc1ncnc2[nH]cnc12)c1nc2cccc(F)c2c(=O)n1-c1ccccc1 [GS-1101]
- drug sensitivity score (DU-4475 [11]): 0
- drug sensitivity score (HCC1143 [12]): 0
- drug sensitivity score (MFM-223): 0
- drug sensitivity score (MCF-10A): 0
- drug sensitivity score (MDA-MB-436): 3.18
- drug sensitivity score (HCC1599 [13]): 0
- drug sensitivity score (HDQ-P1 [14]): 1.93
- drug sensitivity score (MDA-MB-453 [15]): 0

SMILES: CNC(=O)c1cc(Oc2ccc(NC(=O)Nc3cc(C(C)(C)C)nn3-c3ccc4ncccc4c3)c(F)c2)ccn1 [Rebastinib]
- drug sensitivity score (DU-4475 [11]): 0
- drug sensitivity score (HCC1143 [12]): 0
- drug sensitivity score (MFM-223): 6.56
- drug sensitivity score (MCF-10A): 0
- drug sensitivity score (MDA-MB-436): 0
- drug sensitivity score (HCC1599 [13]): 0
- drug sensitivity score (HDQ-P1 [14]): 0
- drug sensitivity score (MDA-MB-453 [15]): 0

SMILES: O=C(/C=C/c1cccnc1)NCCCCC1CCN(C(=O)c2ccccc2)CC1 [FK-866]
- normalised viability (BT-474; 1 nM): 112%
- normalised viability (BT-474; 100 nM): 56.8%
- normalised viability (BT-474; 1000 nM): 58.2%
- normalised viability (CAL-85-1 [1]; 0.3 nM): 103%
- normalised viability (CAL-85-1 [1]; 3 nM): 97.7%
- normalised viability (CAL-85-1 [1]; 10 nM): 91.6%
- normalised viability (HCC1143 [2]; 1 nM): 85.6%
- normalised viability (HCC1143 [2]; 100 nM): 24.4%
- normalised viability (HCC1143 [2]; 1000 nM): 21.3%
- normalised viability (SK-BR-3; 1 nM): 101%
- normalised viability (SK-BR-3; 100 nM): 100%
- normalised viability (SK-BR-3; 1000 nM): 111%
- normalised viability (CAL-51 [3]; 0.3 nM): 113%
- normalised viability (CAL-51 [3]; 3 nM): 95.5%
- normalised viability (CAL-51 [3]; 10 nM): 72.8%
- normalised viability (MDA-MB-231; 1 nM): 106%
- normalised viability (MDA-MB-231; 100 nM): 27.9%
- normalised viability (MDA-MB-231; 1000 nM): 23.2%
- normalised viability (MDA-MB-468; 1 nM): 91.9%
- normalised viability (MDA-MB-468; 100 nM): 1.9%
- normalised viability (MDA-MB-468; 1000 nM): 1.73%
- normalised viability (BT-549; 1 nM): 95%
- normalised viability (BT-549; 100 nM): 10.9%
- normalised viability (BT-549; 1000 nM): 10.7%
- normalised viability (HCC1937; 1 nM): 93.3%
- normalised viability (HCC1937; 100 nM): 64.2%
- normalised viability (HCC1937; 1000 nM): 42.5%
- normalised viability (HCC1599 [4]; 1 nM): 116%
- normalised viability (HCC1599 [4]; 100 nM): 19.5%
- normalised viability (HCC1599 [4]; 1000 nM): 17%
- normalised viability (HDQ-P1 [5]; 0.3 nM): 109%
- normalised viability (HDQ-P1 [5]; 3 nM): 112%
- normalised viability (HDQ-P1 [5]; 10 nM): 98%
- normalised viability (DU-4475 [6]; 300 nM): 2.9%
- normalised viability (CAL-85-1 [7]; 300 nM): 54%
- normalised viability (CAL-148; 300 nM): 45.6%
- normalised viability (CAL-51 [8]; 300 nM): 34.6%
- normalised viability (HDQ-P1 [9]; 300 nM): 51.6%
- normalised viability (MDA-MB-453 [10]; 300 nM): 22.4%
